Like-named read-outs stand apart in the source and are kept apart here.
Key:
[1] = test system: HCV replicon system (Huh-luc/neo-ET cell carrying I389luc-ubi-NS3-3'/ET); assay: Inhibition of the HCV replication by determining the firefly luciferase activity (HCV replicon system); format: cell-based, Hepatitis C virus; conditions: for inhibition at 10 µM: compound concentration 10 μM; for EW (CC50/IC50): ratio of CC50/IC50
Text: HCV replicon system was used to test the effects of compounds on the treatment and prevention of hepatitis C. The HCV replicon system has been acknowledged as a screening tool for new drugs (Lohmann, V. et al., 1999, Replication of subgenomic hepatitis C virus RNAs in hepatoma cell line, Science. Vol. 285, 110-113; Bartenschlager, R. 2002, Hepatitis C virus replicons: potential role for drug development, Nature Reviews/Drug Discovery. Vol. 1, 911-916; Vorlijk, J. M. et al., 2003, A replicon-based bioassay for the measurement of interferons in patients with chronic hepatitis C, Journal of Virological Methods. 110:201-209). The HCV replicon system includes a Huh-luc/neo-ET cell carrying I389luc-ubi-NS3-3′/ET gene construct which monitors the replicative capability of the HCV. In the HCV replicon system, a firefly luciferase-ubiquitin-neomycin fusion protein is expressed by the translation of the internal ribosomal entry site (IRES) of the HCV, and the hepatitis C viral nonstructural proteins (NS3-5B), which includes protease, helicase and polymerase, are expressed by the translation of the IRES of the encephalomyocarditis virus (EMCV).
The IRES of the hepatitis C virus or the hepatitis C viral nonstructural proteins consist of a replication complex. When the replication complex is affected by the candidate compound, the activity of the HCV replicon system is inhibited and the activity of the luciferase is reduced. Accordingly, the inhibition of the HCV can be estimated by determining the activity of the intensity of the luciferase expressed by the Huh-luc/noe-ET cell.
Inhibition of the HCV Replication by Determining the Firefly Luciferase Activity
(§1) Huh-luc/neo-ET cells with a concentration of 2.5×10^4 cells/100 μl/well were seeded into a 96 well culture plate (Corning Incorporation COSTAR, 3599) and placed into a cell incubator for culturing.
The oleanolic acid derivatives as listed in Table 2 were co-cultured with Huh-luc/neo-ET cells for 2 days. The mediums were washed twice by 100 μl of 1×PBS (1 mM KH2PO4, 10 mM Na2HPO4, 137 mM NaCl, 2.7 mM KCl) and PBS was removed. 35 μl of 1× passive lysis buffer (Promega, E1941) was added to the cells and vortexed for 10 minutes to thoroughly lysis the cells.
30 μl/well of the cell suspension was then added to a 96 well white plate (NUNC, 236108) for the measurement of the luciferase activity. Subsequently, 40 μl/well of luminescence analysis buffer and 20 μl/well of luminescence substrate (1 mM D-Luciferin) were added into the 96 well white plates. The luciferase activity (Rlu/s) was measured by a microplate luminescence meter (Berthold, MPL4) immediately.
The luciferase activity of the control was set as a standard to calculate the inhibition rates (%) of HCV of the experiment groups. The inhibition rates was calculated by the following formula: […]
After the test compounds were serial diluted and the inhibition rates of the HCV replication were determined at different concentrations, the concentration at 50% inhibition of the HCV replication (IC50) was calculated by grafit5 software (Erithacus Software).
For each experiment, 0.5 ng/ml and 0.1 ng/ml of the PEG IFN alpha-2a were used as positive controls for the IC50 test. Meanwhile, 1 μg/ml of cyclosporine A (CsA) was also used as a positive control for the IC50 test.

Huh-luc/neo-ET cells = assay: Cell cytotoxic test (MTT) on Huh-luc/neo-ET cells; format: cell-based; conditions: concentration for 15% cell kill, two-day culture
Procedure: (§2) Cell Cytotoxic Test on Huh-luc/noe-ET Cells
as §1
(§3) The next day, the oleanolic acid derivatives as listed in the following Tables 1 and 2 were diluted with a DMEM culture medium to the concentrations of 28.73 μg/ml, 9.57 μg/ml, 3.19 μg/ml, 1.06 μg/ml, 0.35 μg/ml, 0.11 μg/ml, 0.039 μg/ml and 0.013 μg/ml, respectively, or diluted to the concentrations of 114.92 μg/ml, 38.33 μg/ml, 12.77 μg/ml, 4.25 μg/ml, 1.42 μg/ml, 0.46 μg/ml, 0.16 μg/ml and 0.057 μg/ml, respectively. The initial medium in the 96 well culture plate was sucked out by a vacuum pump (DOAT-704AA) without removing the cells. Then, the culture medium containing the oleanolic acid derivatives were added into the 96 well culture plate containing 100 μl/well of the cells as the experiment groups, while the untreated culture mediums were added to the cells as a control.
(§4) After a two-day culture, the medium was removed and each well containing cells was washed by 100 μl of 1×PBS (1 mM KH2PO4, 10 mM Na2HPO4, 137 mM NaCl, 2.7 mM KCl) twice. Precipitates were recorded and PBS was removed. 50 μl of the medium containing 0.5 mg/ml of MTT (Sigma, M2128) was added into each well of the 96 well culture plate. The 96 well culture plate was placed in a CO2 culture incubator for 1 hour. Subsequently, 150 μl of DMSO (Riedel-de Haül, 60153) was added to each well of the 96 well culture plate and vortexed (KS shaker Type 670) to thoroughly mix the resulting purple precipitates. The 96 well culture plate was then placed in a continuous wave length microwell plate analysis system (Molecular Devices, SPECTRAMAX 190) to measure the absorbance of cells at a wavelength of 560 nm.
(§5) The average absorbance of the control was set as 100% of the cell survival rates (%) to calculate the cell survival rates (%) of the experiment groups with different concentrations of the oleanolic acid derivatives.
(§6) The cell survival rate was calculated by the following formula: Absorbance of the experiment group/Absorbance of the control×100%
(§7) The data of the cell survival rates for all experiment groups were plotted on an x-y graph to see the distribution. A trend line was obtained. […]

[2] = Cell cytotoxic test (MTT) on Huh-luc/neo-ET cells; format: cell-based; conditions: human, concentration for 50% cell kill, two-day culture
Procedure: as §2, §1, §3, §4, §5, §6, §7

[3] = Hepatitis C virus, Huh-luc/neo-ET, 48 h, 2 days co-culture, luciferase activity, read-out: Inhibition rate (%)
[4] = Hepatitis C virus, concentration for 50% inhibition of the HCV replication, Huh-luc/neo-ET replicon cells, read-out: IC50

SMILES	inhibition at 10 µM [1, 3] [%]	IC50 [1, 4] [µM]	EW (CC50/IC50) [1]	CC15 (Huh-luc/neo-ET cells) [µM]	CC50 at 2 days [2] [µM]	IC50 ([1]; Hepatitis C virus, Huh-luc/neo-ET) [µM]	inhibition at 5 µM ([1]; Hepatitis C virus, Huh-luc/neo-ET, 48 h, read-out: Inhibition rate (%)) [%]	inhibition at 4 µM ([1]; Hepatitis C virus, Huh-luc/neo-ET, 48 h, compound concentration 4 μM, 2 days co-culture, luciferase activity, read-out: Inhibition rate (%)) [%]
C=CC(C)(O)CC/C=C(\C)C(=O)OC1C(OCC2OC(OC(=O)C34CCC(C)(C)CC3C3=CCC5C6(C)CCC(OC7OC(COC8OCC(O)C(O)C8OC8OCC(O)C(O)C8O)C(O)C(O)C7O)C(C)(C)C6CCC5(C)C3(C)CC4O)C(OC3OC(C)C(OC4OCC(O)C(OC5OCC(O)C(O)C5O)C4O)C(O)C3O)C(OC(=O)/C(C)=C/CCC(C)(O)C=C)C2O)OC(C)C(O)C1O (centres unmarked) [A21]	97.3 ± 1.1	0.63 ± 0.07	90.03	11.64	56.7	–	–	–
CC1(C)CC2C3=CCC4[C@@]5(C)CC[C@H](OC6OCC(O)C(OC7OC(CO)C(O)C(O)C7O)C6O)C(C)(C)C5CC[C@@]4(C)[C@]3(C)C[C@H](O)[C@@]2(CO)[C@H](OC(=O)c2ccccc2)C1 (some centres unmarked) [A22]	-0.8 ± 5.7	–	–	8.62	40	–	–	–
C=CC(C)(O)CCCC(C)C(=O)OC1C(C)OC(OC(C)(C=C)CC/C=C(\CO)C(=O)OC2CC3(C(=O)OC4OCC(OC5OC(CO)C(O)C(OC6OC(CO)C(OC7OC(C)C(O)C(O)C7O)C(O)C6O)C5O)C(O)C4O)CCC4(C)C(=CCC5C6(C)CCC(OC7OC(CO)C(OC8OC(CO)C(O)C(OC9OCC(O)C(O)C9O)C8O)C(O)C7O)C(C)(C)C6CCC54C)C3CC2(C)C)C(O)C1O (centres unmarked) [A23]	–	–	156.73	7.96	38.1	0.23 ± 0.02	93.5 ± 0.4	–
CC(=O)NC1C(O[C@H]2CC[C@@]3(C)C(CC[C@]4(C)C3CC=C3C5CC(C)(C)CC[C@]5(C(=O)OC5OC(COC(=O)/C=C/c6ccccc6)C(OC6OC(CO)C(O)C(O)C6OC(C)=O)C(O)C5OC5OCC(OC6OCC(O)(CO)C6O)C(O)C5O)CC[C@]34C)C2(C)C)OC(COC2OCC(O)C(O)C2OC2OCC(O)C(O)C2O)C(OC2OC(CO)C(O)C(O)C2O)C1O (some centres unmarked) [A24]	–	–	–	4.53	14.1	–	–	54.8 ± 5.4
C=CC(C)(O)CC/C=C(\C)C(=O)O[C@H]1[C@H](O)[C@@H](CO)OC(OC(=O)[C@]23CCC(C)(C)CC2C2=CCC4[C@@]5(C)CC[C@H](OC6O[C@H](COC7OC[C@H](O)[C@H](O)[C@H]7OC7OC[C@@H](O)[C@H](O)[C@H]7O)[C@@H](O)[C@H](O)[C@H]6O)C(C)(C)C5CC[C@@]4(C)[C@]2(C)CC3)[C@@H]1OC1OC(C)C(OC2OC[C@@H](O)[C@H](OC3OC[C@@H](O)[C@H](O)[C@H]3O)[C@H]2O)C(O)C1O (some centres unmarked) [A25]	96.5 ± 0.8	0.36 ± 0.016	178.08	10.29	64.1	–	–	–
C=CC(C)(O)CC/C=C(\C)C(=O)OC1C(O)C(CO)OC(OC(=O)C23CCC(C)(C)CC2C2=CCC4C5(C)CCC(OC6OC(COC7OCC(O)C(O)C7OC7OCC(O)C(O)C7O)C(O)C(O)C6O)C(C)(C)C5CCC4(C)C2(C)CC3O)C1OC1OC(CO)C(OC2OCC(O)C(OC3OCC(O)C(O)C3O)C2O)C(O)C1O (centres unmarked) [A26]	95.6 ± 1.2	0.45 ± 0.04	85.24	7.94	38.4	–	–	–
